Test results reported in patent US20230027295A1, “FXIA INHIBITORS AND PREPARATION METHOD THEREFOR AND PHARMACEUTICAL USE THEREOF” (Shenzhen Salubris Pharmaceuticals Co., Ltd., priority 2019, published 2023).

Assays:
[1] = Caco-2 permeability; assay type: in vitro ADME; details: human; for efflux ratio at 2 h: Caco-2, Papp(B-A)/Papp(A-B); for Papp A→B at 2 h / Papp B→A at 2 h: Caco-2 monolayer, 2h incubation
Experimental: Example 54: Investigation of the Caco-2 Data of the Compounds of the Present Invention
Medium: DMEM (Corning), FBS (Corning), double antibody (Solarbio), 96-well HTS transwell plate (Corning), Caco-2 cells.
Experimental method: Caco-2 cells were cultured on 96-well HTS transwell plate for 14-18 days, and the TEER value of each well was detected to ensure that the cells in each well formed a complete monolayer. Drug was added and it was incubated for 2h to detect the drug concentrations of A-B and B-A.
Data processing: PappA-B and PappB-A values were calculated: Papp=(VA×[drug]acceptor)/(Area×Time×[drug]initial, donor); Efflux Ratio was calculated: Efflux Ratio=Papp(B-A)/Papp(A-B).

[2] = biological target: T1, hKallikrein (Homo sapiens, UniProt P03952); experiment: Selectivity to coagulation factors: kallikrein; assay type: biochemical
T1 construct: purchased LOT180223
T1 sequence (P03952 391-638 limits assumed): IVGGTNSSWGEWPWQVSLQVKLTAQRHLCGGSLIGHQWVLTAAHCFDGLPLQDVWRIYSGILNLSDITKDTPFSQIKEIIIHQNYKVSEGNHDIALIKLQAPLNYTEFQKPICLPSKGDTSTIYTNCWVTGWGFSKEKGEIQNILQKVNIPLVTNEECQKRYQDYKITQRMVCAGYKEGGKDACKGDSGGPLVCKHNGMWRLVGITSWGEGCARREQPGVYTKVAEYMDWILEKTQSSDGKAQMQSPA
T1 sequence (P03952 20-390 partner limits assumed): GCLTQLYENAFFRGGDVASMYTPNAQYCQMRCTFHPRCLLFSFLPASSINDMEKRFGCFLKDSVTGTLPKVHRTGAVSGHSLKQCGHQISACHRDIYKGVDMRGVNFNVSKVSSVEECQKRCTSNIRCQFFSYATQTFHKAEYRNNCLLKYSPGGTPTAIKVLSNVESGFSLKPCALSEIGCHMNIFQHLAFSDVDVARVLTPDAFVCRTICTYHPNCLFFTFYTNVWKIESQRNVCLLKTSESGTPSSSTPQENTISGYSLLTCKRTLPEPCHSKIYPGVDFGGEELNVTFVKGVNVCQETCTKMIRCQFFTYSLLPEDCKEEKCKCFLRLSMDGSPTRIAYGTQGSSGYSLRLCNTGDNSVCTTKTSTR
Experimental: Example 52: Investigation of the Selectivity of the Compounds of the Present Invention to Coagulation Factors
Enzyme: hFXa: Human Factor Xa: 71nkat. hFIIa: HT5146L. hFVIIa: Human Factor VIIa: hFVIIa 4591L. kallikrein: LOT180223.
kallikrein buffer: 50 mM Tris, 50 mM Mimidazole and 150 mM NaCl (pH 8.2).
10 mM test compound dissolved in 100% DMSO was diluted with 100% DMSO to 1000, 200, 40, 8, 1.6 μM. 98 μL of enzyme solution was added to each well of a 96-well plate, while 98 μL of buffer was added to the blank wells. 2 μL of compounds of different concentrations were added, while the blank and control wells were added with DMSO instead. They were mixed with a shaker, and incubated at 37° C. for 20 min.
The concentrations of hFXa and S-2222™ were FXa (1:28) and 800 μmol/L, respectively. The concentrations of hFIIa and S-2238™ were hFIIa (0.06 U/ml) and 500 μmol/L, respectively. The concentrations of hFVIIa and S-2288™ were hFVIIa (80 nM) and 1600 μmol/L, respectively. The concentrations of kallikrein and substrate were kallikrein (20 nM) and 1600 μmol/L, respectively.
Finally, 100 μL substrate was added to each well, and its absorbance was measured at 405 nm.

[3] = biological target: T2, CYP1A2 (Homo sapiens, UniProt P05177); experiment: CYP enzyme inhibition in liver microsomes: CYP1A2; assay type: in vitro ADME; details: 0.2 mg/mL liver microsomes
T2 construct: Liver microsomes (150-donor, Corning, Cat. 452117; Lot; 38292), NADPH; tissue Corning 452117; host or cells: liver microsomes, 150-donor pool
T2 sequence (P05177 1-516): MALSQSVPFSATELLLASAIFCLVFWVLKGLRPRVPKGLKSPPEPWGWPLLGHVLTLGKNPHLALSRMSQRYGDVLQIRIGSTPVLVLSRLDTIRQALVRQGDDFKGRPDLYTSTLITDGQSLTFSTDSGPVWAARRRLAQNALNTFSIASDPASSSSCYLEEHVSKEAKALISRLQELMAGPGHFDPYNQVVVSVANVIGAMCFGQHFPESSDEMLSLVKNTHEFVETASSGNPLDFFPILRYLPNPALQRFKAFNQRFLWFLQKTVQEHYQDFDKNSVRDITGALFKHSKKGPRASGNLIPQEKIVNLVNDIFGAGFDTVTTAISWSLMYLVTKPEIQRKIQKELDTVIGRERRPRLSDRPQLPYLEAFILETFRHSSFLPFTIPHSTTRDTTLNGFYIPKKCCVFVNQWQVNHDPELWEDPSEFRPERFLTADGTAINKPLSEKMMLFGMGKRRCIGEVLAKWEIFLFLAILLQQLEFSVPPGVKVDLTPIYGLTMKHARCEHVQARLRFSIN
Experimental: Example 55: Investigation of CYP Enzyme Inhibition by the Compounds of the Present Invention Liver microsomes (150-donor, Corning, Cat. 452117; Lot. 38292), NADPH. A 0.2 mg/mL microsome system was prepared, each test substance and substrate were added, and the final concentration of the test substance was 50 μM. After pre-incubating for 8 min, 10 mM NADPH was added to start the reaction, and the final concentration of NADPH was 1 mM. After a period of incubation, an internal standard such as methanol was added to stop the reaction. The amount of substrate metabolites generated in each reaction well was detected. Data processing: Taking the metabolite generation in the blank well as 100%, the reduction of metabolite generation in each well of the test substance was calculated, and the inhibition rate was calculated.

Row | SMILES | efflux ratio at 2 h [1] | Papp A→B at 2 h [1] | Papp B→A at 2 h [1] | IC50 [2] | IC50 [3]
1 | COc1nn([C@@H](Cc2ccccc2)C(=O)Nc2ccc(C(=O)O)cc2)c(=O)cc1-c1cc(Cl)ccc1C(C)=O [Example 19, (S)-4-(2-(4-(2-acetyl-5-chlorophenyl)-3-methoxy-6-oxopyridazin-1(6H)-yl)-3-phenylpropanamido)benzoic acid] | 16.3 | 1.54 ×10⁻⁶ cm/s | 25.1 ×10⁻⁶ cm/s | 524 ± 60.2 nM | > 50000 nM
2 | CCC(=O)c1ccc(Cl)cc1-c1cc(=O)n([C@@H](Cc2ccccc2)C(=O)Nc2ccc(C(=O)O)cc2)nc1OC [Example 32] | 18.3 | 1.2 ×10⁻⁶ cm/s | 21.9 ×10⁻⁶ cm/s | 103 ± 14.9 nM | > 50000 nM
